Tests used:
CEM-SS cells [1] = experiment: Cell cytotoxicity (Table 1); format: cell-based; conditions: read-out: Inhibitory Concentration50 For: Cell Cyto-toxicity
CEM-SS cells [2] = experiment: CEM-SS cell growth, 3H-Tdr pulse labelling to measure DNA synthesis; format: cell-based; conditions: Homo sapiens, 48 hours at 37°C, then 3H-Tdr pulse for 8 hours
Protocol: To determine the IC₅₀ for cell growth, CEM-SS cells in suspension culture (10,000 cells/ml RPMI-1640 growth medium) were incubated with serial dilutions of compound at 37°C for 48 hours and then pulsed labelled with 1 microCi of ³H-Tdr (SA = 20 Ci/mmole) for 8 hours at 37°C to measure DNA synthesis.

HIV-1 [3] = conditions: persistently infected monocyte/macrophage (U1) cells
Source text: Anti-HIV1 Activity of Lipid-Nucleoside Conjugates. […] In brief, CEM-SS cell monolayers were infected with HIV-1. […] Plaques were counted at five days after infection. In this assay HIV-1 syncytial plaques are seen as large, multicellular foci (10 to 25 nuclei/syncytium) that appear either brown and granular or clear. Silnce the number of HIV-1 syncytial plaques correlates with reverse transcriptase (RT) and p24 core antigen activity in the HIV-1 infected cell overlay fluids, the syncytial plaque assay can be used to quantify the amount of infectious virus. […] The activity of p24 core antigen induced by HIV-1 infection of CEM-SS cells was measured spectrophotometrically using the commercial Coulter EIA.
(§1) Anti-HIV1 Activity of Lipid-Nucleoside Conjugates in Monocyte/Macrophages. Monocyte/macrophages represent a major reservoir of HIV-1 in the infected human host. […] However, these cells tend to be resistent to dideoxynucleoside prodrugs due to low levels of kinases needed to activate the prodrugs. See C. […]

HIV-1 [4] = conditions: persistently infected monocyte/macrophage (U1) cells; remark: listed apart in the source
Source text: as §1

Row | Compound | IC50 (CEM-SS cells [1]; Homo sapiens, CEM-SS) [µM] | IC50 (CEM-SS cells [2]) [µM] | further results
1 | CCCCCCCCCCCCCCCCOCC(COP(=O)(O)OC[C@H]1O[C@@H](n2cc(C)c(=O)[nH]c2=O)C[C@@H]1N=[N+]=[N-])OCC (stereo partly drawn) [Compound B, 3'-Azido-3'-deoxythymidine-5'-monophosphate-D,L-3-hexadecyloxy-2-ethoxypropane] | 35 ± 2.1 |  | 
2 | Cc1cn([C@H]2C[C@H](N=[N+]=[N-])[C@@H](CO)O2)c(=O)[nH]c1=O [AZT, 3'-azido-3'-deoxythymidine] | 5.6 | 5.1 | Percent of Control (RT DPM) (HIV-1 [3]): 90% of Control; Percent of Control (p24 Core Ag) (HIV-1 [3]): 101% of Control; Percent of Control (PFU) (HIV-1 [4]): 87% of Control
3 | 3'-Azido-3'-deoxythymidine-5'-monophosphate-D,L-3-octadecanamido-2-ethoxypropane [Compound A] |  |  | IC50 (CEM-SS cells [1]): 53.8 µM
4 | O=c1[nH]cnc2c1ncn2[C@H]1CC[C@@H](CO)O1 [DDI, dideoxyinosine] | > 100 |  | 
5 | CCCCCCCCCCCCCCCCCC(=O)NCC(COP(=O)([O-])OC(CC(=O)OC[C@H]1O[C@@H](n2cc(C)c(=O)[nH]c2=O)C[C@@H]1N=[N+]=[N-])C[N+](C)(C)C)OCC (stereo partly drawn) [BB, 3'-Azido-3-deoxythymidine-5'-butyrate-γ-N,N,N-trimethyl-ammonium-β-(1-phospho-2-ethoxy-3-octadecanamidopropane)] |  | 13.7 | 
6 | CCCCCCCCCCCCCCCCOCC(COP(=O)([O-])OC(CC(=O)OC[C@H]1O[C@@H](n2cc(C)c(=O)[nH]c2=O)C[C@@H]1N=[N+]=[N-])C[N+](C)(C)C)OCC (stereo partly drawn) [Compound AA, 3'-Azido-3'-deoxythymidine-5'-butyrate-γ-N,N,N-trimethyl-ammonium-β-(1-phospho-2-ethoxy-3-hexadecyloxypropane)] |  | 13.5 | 
7 | CCCCCCCCCCCCCCCCSCC(COP(=O)(O)OC[C@H]1O[C@@H](n2cc(C)c(=O)[nH]c2=O)C[C@@H]1N=[N+]=[N-])OC (stereo partly drawn) [Compound C, 3'-Azido-3'-deoxythymidine-5'-monophosphate-D,L-3-hexadecylthio-2-methoxypropane] | 29.2 ± 5.7 |  | 

From patent EP0533825B1, “ETHER LIPID-NUCLEOSIDE COVALENT CONJUGATES” (WAKE FOREST UNIVERSITY, priority 1990, dated 1991)
